Starred links: 1 amine or outer side, 2 acyl side, 3 side chain; linkers in the order of their positions; H or OH if unused. Non-standard residues stand in square brackets, D forms with d. Residues, ends and D or L forms follow the SMILES beside them. ξ: configuration not given here. *: point of attachment. ξ3Amino2oxobutanoyl = CC(N[*:1])C(=O)C(=O)[*:2]; NHBn = c1ccc(CN*)cc1; ξNva = CCCC(N)C(=O)O; CF3 = FC(F)(F)*
biological target: T1, HCMV No protease (Human cytomegalovirus, UniProt P16753); test: biochemical; details: not given
T1 construct: at a position located near the center of the precursor (R-site) to excise the catalytic domain (No)
Method: HCMV No protease assay: HCMV No protease was assayed with an internally quenched fluorogenic substrate based on the maturation cleavage site (Abz-[…](3-NO2)R-OH, kcat /KM =260 M^-1 s^-1) . […] A protocol adaptable to a 96-well plate format was designed for the determination of IC50 values of inhibitors. […] After this period, enzymatic hydrolysis was initiated by addition of the fluorogenic substrate and the reaction was performed for 2 hr at 30° C. […] No quenching was required before fluorescence measurement since the total scanning time by the plate reader accessory was brief relative to the duration of the reaction. The incubation buffer (essentially similar to the pre-incubation buffer) contained 50 mM Tris/HCl pH 8, 0.5M Na2 SO4, 50 mM NaCl, 0.1 mM EDTA, 1 mM TCEP, 3% v/v DMSO and 0.05% w/v Casein. The final concentrations of HCMV N, protease (expressed in terms of total monomer concentration) and substrate were 100 nM and 5 μM respectively. IC50 values were obtained through fitting of the inhibition curve to a competitive inhibition model using SAS NLIN procedure. The mode of inhibition was determined by measurements of the initial rates (in cuvettes) at various substrate (Abz-Tbg-Tbg-Asn(Me)2 -Ala-SSRLY(3-NO2)R-OH) and inhibitor concentrations using the same conditions as above.

T1 sequence (P16753 1-256): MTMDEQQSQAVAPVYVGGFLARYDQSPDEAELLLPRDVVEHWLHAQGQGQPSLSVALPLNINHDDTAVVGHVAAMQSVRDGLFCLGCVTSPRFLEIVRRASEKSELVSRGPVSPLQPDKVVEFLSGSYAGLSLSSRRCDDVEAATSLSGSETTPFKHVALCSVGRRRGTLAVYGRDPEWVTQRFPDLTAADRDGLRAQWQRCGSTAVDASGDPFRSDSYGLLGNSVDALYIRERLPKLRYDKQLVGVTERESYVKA

Compound | IC50 [µM]
CC(NC(=O)[C@H](CC(=O)N(C)C)NC(=O)[C@@H](NC(=O)CC(C)(C)C)C(C)(C)C)P(=O)(Oc1ccccc1)Oc1ccccc1 (stereo partly drawn) [Compound 79, Diphenyl N4 ,N4-dimethyl-N1-(1-aminoethylphosphinate)-(2S)-2-{[(1S)-2,2-dirmethyl-1-(neopentylcarboxamido)propyl]carboxamido}butanediamide] | 0.66 ± 0.06

same assay, conditions: IC50 (μM)

Compound | IC50 [µM]
CC(=O)N[C@@H](CO)C(=O)N[C@@H](Cc1ccc(O)cc1)C(=O)N[C@H](C(=O)N[C@@H](CCCCN)C(=O)NC(C)C(=O)C(=O)NCc1ccccc1)C(C)C (stereo partly drawn) [Compound 218, Ac-Ser-Tyr-Val-Lys-Ala(d,l)-C(O)-NH-CH2 -Ph] (Ac-SYVK[ξ3Amino2oxobutanoyl]-NHBn) | 9.4

same assay, conditions: inhibitor pre-incubated 5 hr at 30° C. with enzyme, fluorogenic substrate; read-out: IC50

Compound | IC50 [µM]
Cc1ccc(NC(=O)C(=O)C(C)NC(=O)[C@H](CC(=O)N(C)C)NC(=O)[C@@H](NC(=O)[C@@H](NC(=O)OC(C)(C)C)C(C)C)C(C)C)cc1 (some centres unmarked) [Compound 409] | 1.4
CC(NC(=O)[C@H](CC(=O)N1CCOCC1)NC(=O)[C@@H](NC(=O)CC(C)(C)C)C(C)(C)C)C(=O)C(F)(F)C(F)(F)F (some centres unmarked) [Compound 308] | 0.3
CC(NC(=O)[C@@H](CC(=O)C(NC(=O)CC(C)(C)C)C(C)(C)C)CC(=O)N(C)C)C(=O)C(F)(F)C(F)(F)F (mixture of isomers) [Compound 312, N^4,N^4 -Dimethyl-N^1-[1-(R/ S)-methyl-2-oxo-3,3,4,4,4-pentafluorobutyl]-(2S)-2-{3-[(3,3-dimethyl-1-oxobutyl)-amino]-4,4-dimethyl-2-oxopentyl}-butanediamide] | 5.8
CC(NC(=O)[C@H](CC(=O)N(C)C)NC(=O)[C@@H](NC(=O)CC(C)(C)C)C(C)(C)C)C(=O)C(=O)N[C@H](C)c1cccc2ccccc12 (some centres unmarked) [Compound 407] | 0.2
CC(NC(=O)[C@H](CC(=O)N(C)C)NC(=O)[C@@H](NC(=O)[C@@H](NC(=O)OC(C)(C)C)C(C)C)C(C)C)C(=O)C(=O)NCCc1ccccc1 (some centres unmarked) [Compound 412] | 0.85
CC(NC(=O)[C@H](CC(=O)N1CCCC1)NC(=O)[C@@H](NC(=O)CC(C)(C)C)C(C)(C)C)C(=O)C(=O)NCCOCc1ccccc1 (some centres unmarked) [Compound 305] | 0.3
CC(NC(=O)[C@H](CC(=O)NC(C)(C)C)NC(=O)[C@@H](NC(=O)CC(C)(C)C)C(C)(C)C)C(=O)C(F)(F)C(F)(F)F (some centres unmarked) [Compound 306] | 0.5
CC(NC(=O)[C@@H](CC(=O)[C@@H](NC(=O)CC(C)(C)C)C(C)(C)C)CC(=O)C(C)(C)C)C(=O)C(F)(F)F (some centres unmarked) [Compound 311] | 6.8
CC(NC(=O)[C@H](CC(=O)N(C)C)NC(=O)[C@@H](NC(=O)CC(C)(C)C)C(C)(C)C)C(=O)C(=O)NC[C@@H](C)c1ccccc1 (some centres unmarked) [Compound 408] | 0.2
CC(NC(=O)[C@H](CC(=O)N(C)C)NC(=O)[C@@H](NC(=O)[C@@H](NC(=O)OC(C)(C)C)C(C)C)C(C)C)C(=O)C(=O)Nc1cccc(C(N)=O)c1 (some centres unmarked) [Compound 414] | 1.6
Cc1ccc2nc(C(=O)C(C)NC(=O)[C@H](CC(=O)N(C)C)NC(=O)[C@@H](NC(=O)CC(C)(C)C)C(C)(C)C)oc2c1 (stereo partly drawn) [Compound 82, N4,N4-dimethyl-N1-[1-methyl-2-(6-methyl-1,3-benzoxazol-2-yl)-2-oxoethyl]-(2S)-2-{[(1S)-2,2-dimethyl-1-(neopentylcarboxamido)propyl]carboxamido}butanediamide] | 0.6 ± 0.1
CC[C@@H](NC(=O)C(=O)C(C)NC(=O)[C@H](CC(=O)N(C)CCc1ccccn1)NC(=O)[C@@H](NC(=O)CC(C)(C)C)C(C)(C)C)c1ccccc1 (some centres unmarked) [Compound 309] | 0.12
CC(NC(=O)[C@H](CC(=O)N(C)C)NC(=O)[C@@H](NC(=O)[C@@H](NC(=O)OC(C)(C)C)C(C)C)C(C)C)C(=O)C(=O)NC1CCCCC1 (some centres unmarked) [Compound 411] | 1.8
CC(NC(=O)[C@H](CC(=O)N(C)C)NC(=O)[C@@H](NC(=O)[C@@H](N)C(C)C)C(C)C)C(=O)C(=O)NCc1ccc(C(F)(F)F)cc1 (some centres unmarked) [Compound 404] | 1.7
CC(NC(=O)[C@H](CC(=O)N(C)C)NC(=O)[C@@H](NC(=O)[C@@H](NC(=O)OC(C)(C)C)C(C)C)C(C)C)C(=O)C(=O)NCC(C)(C)C (some centres unmarked) [Compound 402] | 4.3
CCCCC[C@@H](C)NC(=O)C(=O)C(C)NC(=O)[C@H](CC(=O)N(C)C)NC(=O)[C@@H](NC(=O)CC(C)(C)C)C(C)(C)C (some centres unmarked) [Compound 406] | 0.8
CC[C@@H](NC(=O)C(=O)C(C)NC(=O)[C@H](CC(=O)N(C)C)NC(=O)[C@@H](NC(=O)[C@@H](NC(=O)CCCCCNC(=O)OC(C)(C)C)C(C)(C)C)C(C)(C)C)c1ccccc1 (some centres unmarked) [Compound 96] | 0.057
CC[C@@H](NC(=O)C(=O)C(C)NC(=O)[C@H](CC(=O)N(C)C)NC(=O)[C@@H](NC(=O)[C@@H](NC(=O)CCCCCN)C(C)(C)C)C(C)(C)C)c1ccccc1 (some centres unmarked) [Compound 97] | 0.073
C=CCOC(=O)OCCNC(=O)C(=O)C(C)NC(=O)[C@H](CC(=O)N(C)C)NC(=O)[C@@H](NC(=O)CC(C)(C)C)C(C)(C)C (some centres unmarked) [Compound 401] | 0.59
CC(NC(=O)[C@H](CC(=O)N(C)C)NC(=O)[C@@H](NC(=O)[C@@H](NC(=O)OC(C)(C)C)C(C)C)C(C)C)C(=O)C(=O)Nc1ccccc1 (some centres unmarked) [Compound 410] | 1.5
CC(NC(=O)[C@H](CCC(=O)N(C)C)NC(=O)[C@@H](NC(=O)CC(C)(C)C)C(C)(C)C)C(=O)C(F)(F)C(F)(F)F (some centres unmarked) [Compound 307] | 2
CC(NC(=O)[C@H](CC(=O)N1CCCC1)NC(=O)[C@@H](NC(=O)CC(C)(C)C)C(C)(C)C)C(=O)C(=O)NCc1ccc(I)cc1 (some centres unmarked) [Compound 98] | 0.34
CC[C@@H](NC(=O)C(=O)C(C)NC(=O)[C@H](CS(N)(=O)=O)NC(=O)[C@@H](NC(=O)CC(C)(C)C)C(C)(C)C)c1ccccc1 (some centres unmarked) [Compound 310] | 0.97
CCCC(NC(=O)[C@H](CC(N)=O)NC(=O)[C@@H](NC(=O)[C@@H](NC(C)=O)C(C)C)C(C)C)C(=O)C(F)(F)F (some centres unmarked) [Compound 45] (Ac-VVN[ξNva]-CF3) | > 300
CC(NC(=O)[C@H](CC(=O)N(C)C)NC(=O)[C@@H](NC(=O)CC(C)(C)C)C(C)(C)C)C(=O)C(=O)NCc1ccc(C(=O)N2CCOCC2)cc1 (some centres unmarked) [Compound 405] | 0.5
CC(NC(=O)[C@H](CC(=O)N(C)C)NC(=O)[C@@H](NC(=O)[C@@H](NC(=O)OC(C)(C)C)C(C)C)C(C)C)C(=O)C(=O)NCC1CCCCC1 (some centres unmarked) [Compound 413] | 4.4
C[C@H](NC(=O)[C@H](CC(=O)N1CCCC1)NC(=O)[C@@H](NC(=O)CC(C)(C)C)C(C)(C)C)C(=O)c1nc2ccccc2o1 [Compound 304] | 0.5

same assay, conditions: relative to compound 96

Compound | improvement of potency (factor) on removal of the Boc group
CC[C@@H](NC(=O)C(=O)C(C)NC(=O)[C@H](CC(=O)N(C)C)NC(=O)[C@@H](NC(=O)[C@@H](NC(=O)CCCCCN)C(C)(C)C)C(C)(C)C)c1ccccc1 (some centres unmarked) [Compound 97] | 2

same assay, conditions: text of b731; read-out: IC50 value / potency

Compound | IC50 [µM]
CC[C@@H](NC(=O)C(=O)C(C)NC(=O)[C@H](CC(=O)N(C)C)NC(=O)[C@@H](NC(=O)[C@@H](NC(=O)CCCCCNC(=O)OC(C)(C)C)C(C)(C)C)C(C)(C)C)c1ccccc1 (some centres unmarked) [Compound 96] | 0.075
CC[C@@H](NC(=O)C(=O)C(C)NC(=O)[C@H](CC(=O)N(C)C)NC(=O)[C@@H](NC(=O)[C@@H](NC(=O)CCCCCN)C(C)(C)C)C(C)(C)C)c1ccccc1 (some centres unmarked) [Compound 97] | < 0.04

biological target: T2, porcine pancreatic elastase (PPE) (Sus scrofa, UniProt P00772); test: Specificity assay, porcine pancreatic elastase; format: biochemical; details: not given
T2 construct: porcine pancreas elastase #1027891 lot 83260521-23; purchased Boehringer Mannheim #1027891
Method: The specificity of the compounds was determined against a variety of serine proteases (Human leukocyte and porcine pancreatic elastases (HLE & PPE), bovine pancreas α-chymotrypsin) and one cysteine protease (Human liver cathepsin B). In all cases a 96-well plate format protocol using a calorimetric p-nitroanilide (pNA) substrate specific for each enzyme was used. Each assay included a 1 hr pre-incubation enzyme-inhibitor at 30° C. followed by addition of substrate and hydrolysis to ≈30% conversion as measured by scanning on a UV Thermomax microplate reader. Substrate concentrations were kept as low as possible compared to KM to reduce substrate competition. […] The final conditions for each assay were as followed: 50 mM Tris/HCl pH 8, 0.5 M Na2 SO4, 50 mM NaCl, 0.1 mM EDTA, 3% DMSO, 0.01% Tween-20 with [100 μM Succ-AAPF-pNA and 250 pM α-chymotrypsin], [133 μM Succ-AAA-pNA and 8 nM porcine elastase], or [133 μM Succ-AAV-pNA and 8 nM leukocyte elastase]. 100 mM NaH2 PO4 pH 6, 0.1 mM EDTA, 3% DMSO, 1 mM TCEP, 0.01% Tween-20, 30 μM Z-FR-pNA and 5 nM cathepsin B (the stock enzyme was activated in buffer containing 20 mM TCEP before use).

T2 sequence (P00772 27-266): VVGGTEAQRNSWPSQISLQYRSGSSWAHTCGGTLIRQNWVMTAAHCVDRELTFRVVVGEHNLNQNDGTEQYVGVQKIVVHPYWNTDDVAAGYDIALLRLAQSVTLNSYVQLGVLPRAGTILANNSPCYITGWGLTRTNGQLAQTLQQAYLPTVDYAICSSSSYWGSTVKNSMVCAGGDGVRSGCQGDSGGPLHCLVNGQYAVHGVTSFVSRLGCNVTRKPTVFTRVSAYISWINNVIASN

Compound | inhibition of PPE | potency against PPE relative to HCMV protease
CC(NC(=O)[C@H](CC(=O)N(C)C)NC(=O)[C@@H](NC(=O)CC(C)(C)C)C(C)(C)C)C(=O)c1nc2ncccc2o1 (stereo partly drawn) [Compound 81, N4,N4-dimethyl-N1-(1-methyl-2-[1,3]oxazolo[4,5-b]pyridin-2-yl-2-oxoethyl)-(2S)-2-{[(1S)-2,2-dimethyl-1-(neopentylcarboxamido)propyl]carboxamido} butanediamide] | not an inhibitor of PPE | –
CC(NC(=O)[C@H](CC(=O)N(C)C)NC(=O)[C@@H](NC(=O)CC(C)(C)C)C(C)(C)C)C(=O)c1nc2ccccc2o1 (stereo partly drawn) [Compound 77, N1-[2-(1,3-benzoxazol-2-yl)-1-methyl-2-oxoethyl]-N4,N4-dimethyl-(2S)-2-{[(1S)-2,2-dimethyl-1-(neopentylcarboxamido)propyl]carboxamido}butanediamide] | – | seven fold more potent against PPE than against HCMV protease

same assay, conditions: 1 hr pre-incubation at 30° C., Succ-AAA-pNA; read-out: IC50 against PPE

Compound | IC50 [nM]
CC(NC(=O)[C@H](CC(=O)N(C)C)NC(=O)[C@@H](NC(=O)CC(C)(C)C)C(C)(C)C)C(=O)c1nc2ccccc2s1 (stereo partly drawn) [Compound 80, N1-[2-(1,3-benzothiazol-2-yl)-1-methyl-2-oxoethyl]-N4,N4-dimethyl-(2S)-2-{[(1S)-2,2-di-methyl-1-(neopentylcarboxamido)propyl]carboxamido}butanediamide] | 9000
